Data set [1] has as its system MDA-MB-231. As to the kind of experiment: cells. To be noted: Homo sapiens, MDA-MB-231, 48 h.
Description: Antiproliferative activity against human MDA-MB-231 cells assessed as inhibition of cell growth incubated for 48 hrs by CCK-8 assay
The subject of data set [2] is MDA-MB-231. As to the kind of experiment: Antitumor activity against human MDA-MB-231 cells xenografted in BALB/c mouse assessed as tumor growth inhibition at 40 mg/kg,ip administrated for 21 consecutive days. To be noted: read-out: TGI. The data set is classed as functional.
Data set [3] in a line: Tmax in Sprague-Dawley rat at 10 mg/kg,iv administration measured upto 24 hrs by LC-MS/MS analysis. The format is ADME, organism-based. To be noted: in vivo.
Data set [4] is described as follows: Half life in human liver microsomes in presence of NADPH incubated for 5 to 45 mins by LC/MS analysis. The data set is classed as ADME, Microsome. To be noted: time 5-45 min.
Data set [5] can be described thus: MRT (0 to t) in Sprague-Dawley rat at 10 mg/kg,iv administration measured upto 24 hrs by LC-MS/MS analysis. The format is ADME, organism-based. To be noted: in vivo.
The test system of data set [6] is HepG2. As to the kind of experiment: cells. To be noted: Homo sapiens, HepG2, 48 h.
Description: Antiproliferative activity against human HepG2 cells assessed as inhibition of cell growth incubated for 48 hrs by CCK-8 assay
Data set [7] in a line: Clearance in Sprague-Dawley rat at 10 mg/kg,iv administration measured upto 24 hrs by LC-MS/MS analysis. To be noted: in vivo. The data set is classed as ADME, organism-based.
The nature of data set [8]: Half life in Sprague-Dawley rat at 10 mg/kg,iv administration measured upto 24 hrs by LC-MS/MS analysis. The format is ADME, organism-based. To be noted: in vivo.
Data set [9] relates to HCT-116. As to the kind of experiment: cells. To be noted: Homo sapiens, HCT-116, 48 h.
Description: Antiproliferative activity against human HCT-116 cells assessed as inhibition of cell growth incubated for 48 hrs by CCK-8 assay
Data set [10] can be described thus: Intrinsic clearance in human liver microsomes in presence of NADPH incubated for 5 to 45 mins by LC/MS analysis. The format is ADME, Microsome. To be noted: time 5-45 min, read-out: CLH. A general note: Liver microsomes are vesicles of endoplasmic reticulum, rich in cytochrome P450 enzymes.
Data set [11] in a line: AUC (0 to t) in Sprague-Dawley rat at 10 mg/kg,iv administration measured upto 24 hrs by LC-MS/MS analysis. To be noted: in vivo. The format is ADME, organism-based.
Data set [12] has as its system A549. Description: cells. To be noted: Homo sapiens, A549, 48 h.
Description: Antiproliferative activity against human A549 cells assessed as inhibition of cell growth incubated for 48 hrs by CCK-8 assay
Data set [13] is described as follows: Cmax in Sprague-Dawley rat at 10 mg/kg,iv administration measured upto 24 hrs by LC-MS/MS analysis. The data set is classed as ADME, organism-based. To be noted: in vivo.
Data set [14] addresses CDK2/Cyclin A2 (Homo sapiens) (UniProt P24941+P20248). Description: Inhibition of CDK2/CyclinA2 (unknown origin) at 100 nM preincubated for 15 mins followed by substrate and ATP addition incubated for 10 mins by ADP-glo luminescent assay relative to control. The format is protein-complex assay. To be noted: time 25.0 min. For orientation: In ADP-Glo the light output rises with the ADP produced.

Data set [15] deals with HCT-116. Description: Induction of cell cycle arrest in human HCT-116 cells assessed as accumulation of cells at G2 phase at 10 uM incubated for 24 hrs by RNase/PI staining based flow cytometric analysis. The data set is classed as functional. In general terms: Flow cytometry measures light scatter and fluorescence of single cells or particles in a stream.
Data set [16] relates to MDA-MB-231. Description: Induction of cell cycle arrest in human MDA-MB-231 cells assessed as accumulation of cells at G2 phase at 10 uM incubated for 24 hrs by RNase/PI staining based flow cytometric analysis. The data set is classed as functional.
In data set [17] the target is CDK6/cyclin D3 (Homo sapiens) (UniProt P30281+Q00534). As to the kind of experiment: Inhibition of CDK6/CyclinD3 (unknown origin) at 100 nM preincubated for 15 mins followed by substrate and ATP addition incubated for 10 mins by ADP-glo luminescent assay relative to control. The format is protein-complex assay. To be noted: time 25.0 min.
For data set [18], the system named is MDA-MB-231. Description: Induction of cell cycle arrest in human MDA-MB-231 cells assessed as accumulation of cells at G1 phase at 10 uM incubated for 24 hrs by RNase/PI staining based flow cytometric analysis. The data set is classed as functional.
For data set [19], the system named is HCT-116. As to the kind of experiment: Induction of cell cycle arrest in human HCT-116 cells assessed as accumulation of cells at G1 phase at 10 uM incubated for 24 hrs by RNase/PI staining based flow cytometric analysis. The format is functional.

Calls of active or inactive are those of the source.

As a reminder, the IC50 is the concentration that gives 50% inhibition. High values mean lower potency, low ones higher potency. Broadly, the Tmax is the time at which the peak concentration occurs. By half-life is commonly meant the time needed for the level to fall by half in the phase considered. Usually MRT last stands for a mean duration of stay, worked out from the concentration-time curve. As a reminder, the clearance is the volume of plasma or blood freed of the substance per unit of time. A low value points to inefficient removal. Broadly, the AUC(0-t) is the area under the concentration-time curve up to a stated or last time point. Broadly, the Cmax is the highest concentration seen after dosing. Turning to `COc1ccc(N(C(=O)CCl)C(C(=O)NCCc2ccccc2)c2cccs2)cc1Cl` (configuration not stated), the IC50 in [1] amounted to 2.27 µM; in [6] it was 3.71 µM; in data set [9] it was 4.14 µM; in [12] it was 2.09 µM. The inhibition in vivo at 40 mg/kg in data set [2] came out at 60.9%. Besides, the Tmax in data set [3] is 48 min. Also, the results for the half-life in [4] and in data set [8] were 0.6 min and 102 min, respectively. In [5], this compound returned an MRT last at 24 h of 1.8 h. In addition, in data set [7], the clearance was 20.8 mL/min/kg. For the same compound, the CLint scaled in data set [10] worked out at 2680 mL/min/kg. Moreover, the AUC(0-t) at 24 h in data set [11] was found to be 8020 ng·h/mL. This compound also returned a Cmax in [13] of 8530 ng/mL.

The inhibition is the change of the read-out against control, counted positive when it falls. Low readings indicate little suppression, high ones strong suppression. Take `O=C1Nc2ccccc2/C1=C1/Nc2ccccc2/C1=N\O`: the inhibition in data set [14] was 40.3%; in data set [17], 51.1%. The outcome in [15], in [16], in [18] and in [19] was Active. For the same compound, the IC50 in data set [1] worked out at 5.16 µM; in [6], 5.66 µM; in data set [9], 4.22 µM; in data set [12] it was 4.04 µM. The inhibition in vivo at 40 mg/kg in data set [2] came out at 59.4%. Besides, in data set [3], the Tmax was found to be 48 min. Also, the half-life is 29 min in [4] and 228 min in data set [8]. The MRT last at 24 h in data set [5] turned out to be 2.7 h. The compound also showed a clearance in data set [7] of 12.8 mL/min/kg. In data set [10], the CLint scaled stood at 55.2 mL/min/kg. Moreover, in [11], the exposure AUC(0-t) at 24 h is 12900 ng·h/mL. Moreover, the highest level in data set [13] (Cmax) was 8730 ng/mL.

The values are drawn from ChEMBL document CHEMBL5528035, “Design, Synthesis, and Biological Evaluation for First GPX4 and CDK Dual Inhibitors” (J Med Chem, 2024).
